46 compounds from ChEMBL document CHEMBL1136688, “Synthesis and SAR of aminoalkoxy-biaryl-4-carboxamides: novel and selective histamine H3 receptor antagonists” (Bioorg Med Chem Lett, 2003) can be followed below.

Test [1] addresses Histamine H3 receptor (Rattus norvegicus, UniProt Q9QYN8). Briefly: Binding affinity towards rat cortical H3 receptor.
Test [2] has as its target Histamine H3 receptor (Homo sapiens, UniProt Q9Y5N1). As to the kind of experiment: Binding affinity for human recombinant H3 receptor.
The target in a further test is Histamine H2 receptor (Homo sapiens, UniProt P25021). As to the kind of experiment: Binding affinity towards human histamine (H2) receptor.
The target of a further test is Histamine H1 receptor (Homo sapiens, UniProt P35367). Briefly: Binding affinity towards human histamine (H1) receptor.
Sequence of Histamine H1 receptor (P35367 whole entry): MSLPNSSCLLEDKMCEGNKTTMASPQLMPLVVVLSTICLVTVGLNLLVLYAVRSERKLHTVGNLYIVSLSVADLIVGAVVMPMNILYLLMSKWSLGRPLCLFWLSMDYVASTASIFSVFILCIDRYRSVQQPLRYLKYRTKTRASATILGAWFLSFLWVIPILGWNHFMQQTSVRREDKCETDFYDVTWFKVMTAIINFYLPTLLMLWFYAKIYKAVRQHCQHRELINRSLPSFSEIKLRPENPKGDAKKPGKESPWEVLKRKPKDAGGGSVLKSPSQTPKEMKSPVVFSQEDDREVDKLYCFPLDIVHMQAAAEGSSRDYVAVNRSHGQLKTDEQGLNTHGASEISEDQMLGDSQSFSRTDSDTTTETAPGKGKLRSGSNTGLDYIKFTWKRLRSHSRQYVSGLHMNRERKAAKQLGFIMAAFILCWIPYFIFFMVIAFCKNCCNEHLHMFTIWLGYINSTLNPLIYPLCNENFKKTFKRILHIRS

Sequence of Histamine H3 receptor (Rattus norvegicus, UniProt Q9QYN8) (Q9QYN8 whole entry): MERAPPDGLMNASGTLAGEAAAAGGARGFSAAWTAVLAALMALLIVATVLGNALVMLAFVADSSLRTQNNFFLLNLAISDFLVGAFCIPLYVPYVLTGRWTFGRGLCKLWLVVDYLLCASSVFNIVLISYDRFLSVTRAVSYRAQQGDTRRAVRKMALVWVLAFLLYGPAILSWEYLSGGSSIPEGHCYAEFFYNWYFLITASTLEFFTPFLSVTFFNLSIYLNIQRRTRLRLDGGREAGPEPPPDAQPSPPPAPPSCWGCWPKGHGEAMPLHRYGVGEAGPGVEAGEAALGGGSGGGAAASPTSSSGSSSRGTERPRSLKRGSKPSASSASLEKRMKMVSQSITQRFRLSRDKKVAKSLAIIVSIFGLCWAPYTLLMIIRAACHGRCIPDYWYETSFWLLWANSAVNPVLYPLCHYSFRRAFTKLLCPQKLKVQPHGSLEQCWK
Sequence of Histamine H3 receptor (Homo sapiens, UniProt Q9Y5N1) (Q9Y5N1 whole entry): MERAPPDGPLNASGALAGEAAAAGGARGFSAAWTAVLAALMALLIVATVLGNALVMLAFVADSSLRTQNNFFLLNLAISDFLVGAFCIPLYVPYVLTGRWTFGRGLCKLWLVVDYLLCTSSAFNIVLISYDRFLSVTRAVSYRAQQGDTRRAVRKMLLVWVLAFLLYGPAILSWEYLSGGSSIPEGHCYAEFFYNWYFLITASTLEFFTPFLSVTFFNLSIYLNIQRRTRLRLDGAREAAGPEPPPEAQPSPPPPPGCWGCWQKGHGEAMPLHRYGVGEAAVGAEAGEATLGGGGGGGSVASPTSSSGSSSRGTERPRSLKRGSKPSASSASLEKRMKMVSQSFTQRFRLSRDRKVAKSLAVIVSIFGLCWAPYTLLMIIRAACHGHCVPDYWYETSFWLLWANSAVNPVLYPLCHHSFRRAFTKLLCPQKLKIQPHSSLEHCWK
Sequence of Histamine H2 receptor (P25021 whole entry): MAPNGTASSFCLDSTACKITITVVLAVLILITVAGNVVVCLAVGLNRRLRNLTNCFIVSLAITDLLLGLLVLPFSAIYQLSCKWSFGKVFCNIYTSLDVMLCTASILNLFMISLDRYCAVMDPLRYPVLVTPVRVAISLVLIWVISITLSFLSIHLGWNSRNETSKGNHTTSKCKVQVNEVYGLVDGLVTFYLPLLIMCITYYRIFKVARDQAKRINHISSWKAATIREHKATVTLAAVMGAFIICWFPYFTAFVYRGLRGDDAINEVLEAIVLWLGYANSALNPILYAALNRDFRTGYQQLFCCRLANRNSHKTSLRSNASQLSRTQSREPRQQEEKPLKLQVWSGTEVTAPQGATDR

A word on the Ki: it is the dissociation constant of the complex between target and ligand, obtained from inhibition or displacement. `CCN(CC)C(=O)c1ccc(-c2ccc(OCCCN3CC[C@H](O)C3)cc2)cc1`: the Ki at Histamine H3 receptor [1] is 42.7 nM; at Histamine H3 receptor [2] it was 8.13 nM.
For `CC1CCN(CCCOc2ccc(-c3ccc(C(=O)N4[C@@H](C)CC[C@@H]4C)cc3)cc2)CC1` the same measures were 3.63 nM and 4.68 nM.
The corresponding values for `CC1CCCN1C(=O)c1ccc(-c2ccc(OCCCN3CC[C@H](O)C3)cc2)cc1` (some centres not stated) are 25.7 nM and 8.32 nM.
The corresponding values for `C[C@H]1CC[C@H](C)N1CCCOc1ccc(-c2ccc(C(=O)N3CCCC3)cc2)cc1` are 5.13 nM and 0.692 nM.
Consider `CC1CCN(CCCOc2ccc(-c3ccc(C(=O)N4CCC(C)CC4)cc3)cc2)CC1`, for which the Ki at Histamine H3 receptor [1] is 20.9 nM; at Histamine H3 receptor [2] it was 10.7 nM.
The corresponding values for `CCN(CC)C(=O)c1ccc(-c2ccc(OCCCN3CCOCC3)cc2)cc1` are 97.7 nM and 16.2 nM.
For `CC1CCN(C(=O)c2ccc(-c3ccc(OCCCN4CC[C@@H](N(C)C)C4)cc3)cc2)CC1` the same measures were 29.5 nM and 3.89 nM.
For `CC1CCN(C(=O)c2ccc(-c3ccc(OCCCN4[C@@H](C)CC[C@@H]4C)cc3)cc2)CC1` the same measures were 2.95 nM and 0.603 nM.
With `CC1CCN(C(=O)c2ccc(-c3ccc(OCCCN4CC[C@H](O)C4)cc3)cc2)CC1`, the Ki was 30.9 nM on Histamine H3 receptor [1] and 6.92 nM at Histamine H3 receptor [2].
For the compound `O=C(c1ccc(-c2ccc(OCCCN3CCCC3)cc2)cc1)N1CCCC1`, the Ki on Histamine H2 receptor was more than 1910 nM; at Histamine H3 receptor [1] it was 6.61 nM; on Histamine H1 receptor it was more than 1910 nM; on Histamine H3 receptor [2], 1.12 nM.
With `CCN(CC)CCCOc1ccc(-c2ccc(C(=O)N3CCC(C)CC3)cc2)cc1`, the Ki on Histamine H3 receptor [1] was 8.32 nM; on Histamine H3 receptor [2], 3.47 nM.
For `C[C@H]1CC[C@H](C)N1C(=O)c1ccc(-c2ccc(OCCCN3CC[C@H](N(C)C)C3)cc2)cc1` the same measures were 17.4 nM and 4.37 nM.
For the compound `CC1CCN(CCCOc2ccc(-c3ccc(C(=O)NC(C)C)cc3)cc2)CC1`, the Ki on Histamine H3 receptor [1] was 3.8 nM; on Histamine H3 receptor [2] it was 2.09 nM.
For `CC1CCCN1C(=O)c1ccc(-c2ccc(OCCCN3CC[C@H](N(C)C)C3)cc2)cc1` (some centres not stated) the same measures were 21.4 nM and 6.46 nM.
For `CC1CCCN1C(=O)c1ccc(-c2ccc(OCCCN3[C@@H](C)CC[C@@H]3C)cc2)cc1` (some centres not stated) the same measures were 1.02 nM and 0.776 nM.
For `CC1CCN(CCCOc2ccc(-c3ccc(C(=O)N4CCCC4)cc3)cc2)CC1` the same measures were 10.2 nM and 3.63 nM.
As to `O=C(c1ccc(-c2ccc(OCCCN3CC[C@H](O)C3)cc2)cc1)N1CCCC1`, the Ki at Histamine H3 receptor [1] was 33.1 nM; on Histamine H3 receptor [2], 6.46 nM.
For `CC(C)NC(=O)c1ccc(-c2ccc(OCCCN3[C@@H](C)CC[C@@H]3C)cc2)cc1` the same measures were 2.82 nM and 0.851 nM.
For `CC(C)NCCCOc1ccc(-c2ccc(C(=O)N3[C@@H](C)CC[C@@H]3C)cc2)cc1` the same measures were 219 nM and 229 nM.
The corresponding values for `CC1CCN(CCCOc2ccc(-c3ccc(C(=O)N4CCCC4C)cc3)cc2)CC1` (configuration not stated) are 2.82 nM and 3.72 nM.
`O=C(c1ccc(-c2ccc(OCCCN3CC[C@H](O)C3)cc2)cc1)N1CCOCC1`: the values for the Ki at Histamine H3 receptor [1] and at Histamine H3 receptor [2] were 32.4 nM and 6.17 nM, respectively.
The corresponding values for `CCN(CC)C(=O)c1ccc(-c2ccc(OCCCN3CC[C@H](N(C)C)C3)cc2)cc1` are 28.2 nM and 6.92 nM.
The corresponding values for `CN(C)[C@@H]1CCN(CCCOc2ccc(-c3ccc(C(=O)N4CCCC4)cc3)cc2)C1` are 18.6 nM and 2.88 nM.
The corresponding values for `CC1CCN(C(=O)c2ccc(-c3ccc(OCCCN4CCOCC4)cc3)cc2)CC1` are 70.8 nM and 23.4 nM.
Consider `CN(C)[C@@H]1CCN(CCCOc2ccc(-c3ccc(C(=O)N4CCOCC4)cc3)cc2)C1`, for which the inhibition constant Ki was 27.5 nM on Histamine H3 receptor [1] and 5.5 nM at Histamine H3 receptor [2].
For `CC(C)NC(=O)c1ccc(-c2ccc(OCCCN3CCOCC3)cc2)cc1` the same measures were 135 nM and 38.9 nM.
As to `C[C@H]1CC[C@H](C)N1C(=O)c1ccc(-c2ccc(OCCCN3CCOCC3)cc2)cc1`, the figures for the Ki at Histamine H3 receptor [1] and on Histamine H3 receptor [2] were 115 nM and 37.2 nM, respectively.
On to `CCN(CC)C(=O)c1ccc(-c2ccc(OCCCN3CCC(C)CC3)cc2)cc1`, for which the results for the Ki on Histamine H3 receptor [1] and at Histamine H3 receptor [2] were 9.12 nM and 4.79 nM, respectively.
The corresponding values for `CCN(CC)C(=O)c1ccc(-c2ccc(OCCCNC(C)C)cc2)cc1` are 407 nM and 110 nM.
The corresponding values for `CC(C)(C)CCC#C[C@@H]1C[C@H]1c1c[nH]cn1` [CIPRALISANT] are 0.195 nM and 2.14 nM.
The corresponding values for `CC1CCCN1C(=O)c1ccc(-c2ccc(OCCCN3CCOCC3)cc2)cc1` (configuration not stated) are 112 nM and 24.5 nM.
`CC(C)NCCCOc1ccc(-c2ccc(C(=O)N3CCOCC3)cc2)cc1`: the inhibition constant Ki at Histamine H3 receptor [1] was 129 nM; at Histamine H3 receptor [2], 32.4 nM.
As for `O=C(c1ccc(-c2ccc(OCCCN3CCOCC3)cc2)cc1)N1CCOCC1`, the Ki at Histamine H3 receptor [1] was 52.5 nM; on Histamine H3 receptor [2], 18.2 nM.
The corresponding values for `CC1CCN(CCCOc2ccc(-c3ccc(C(=O)N4CCOCC4)cc3)cc2)CC1` are 8.71 nM and 7.24 nM.
For `CCN(CC)CCCOc1ccc(-c2ccc(C(=O)N3CCOCC3)cc2)cc1` the same measures were 8.91 nM and 2.4 nM.
On to `CCN(CC)C(=O)c1ccc(-c2ccc(OCCCN3[C@@H](C)CC[C@@H]3C)cc2)cc1`, for which the inhibitory constant (Ki) on Histamine H3 receptor [2] is 0.776 nM.
As for `C[C@H]1CC[C@H](C)N1C(=O)c1ccc(-c2ccc(OCCCN3CC[C@H](O)C3)cc2)cc1`, the inhibitory constant (Ki) on Histamine H3 receptor [1] is 57.5 nM; at Histamine H3 receptor [2] it was 11.2 nM.
The corresponding values for `CC1CCN(C(=O)c2ccc(-c3ccc(OCCCNC(C)C)cc3)cc2)CC1` are 479 nM and 182 nM.
As to `C[C@H]1CC[C@H](C)N1CCCOc1ccc(-c2ccc(C(=O)N3[C@@H](C)CC[C@@H]3C)cc2)cc1`, the Ki at Histamine H3 receptor [2] was 0.977 nM.
For the compound `CC(C)NCCCOc1ccc(-c2ccc(C(=O)N3CCCC3C)cc2)cc1` (configuration not stated), the Ki was 42.7 nM at Histamine H3 receptor [1] and 9.77 nM at Histamine H3 receptor [2].
For `CCN(CC)CCCOc1ccc(-c2ccc(C(=O)N3CCCC3C)cc2)cc1` (configuration not stated) the same measures were 7.24 nM and 2.14 nM.
Regarding `O=C(c1ccc(-c2ccc(OCCCN3CCOCC3)cc2)cc1)N1CCCC1`, the results for the Ki at Histamine H3 receptor [1] and on Histamine H3 receptor [2] were 178 nM and 40.7 nM, respectively.
For `CC(C)N(C)C(=O)c1ccc(-c2ccc(OCCCN3CC[C@H](O)C3)cc2)cc1` the same measures were 28.8 nM and 8.13 nM.
The corresponding values for `CCN(CC)CCCOc1ccc(-c2ccc(C(=O)N3CCCC3)cc2)cc1` are 12.9 nM and 3.02 nM.
For `CCN(CC)CCCOc1ccc(-c2ccc(C(=O)NC(C)C)cc2)cc1` the same measures were 16.2 nM and 6.17 nM.
For the compound `CCN(CC)CCCOc1ccc(-c2ccc(C(=O)N3[C@@H](C)CC[C@@H]3C)cc2)cc1`, the figures for the Ki on Histamine H3 receptor [1] and on Histamine H3 receptor [2] were 13.8 nM and 5.13 nM, respectively.
